Laboratory results from patent US7659394B2 (Pfizer Inc, priority 2004, dated 2010).

Columns and labels:
[1] = target: T1, human norepinephrine transporter (Homo sapiens, UniProt P23975); test: hNET receptor binding ([125I]-RTI-55 radioligand binding); details: membranes of HEK-293 cells transfected with human norepinephrine transporter, IC50 converted to Ki by Cheng-Prusoff, read-out: hNET (Ki)
T1 construct: host or cells: HEK-293
Source text: (§1) The ability of the compounds of this invention to bind to the hNET and serotonin SERT receptor can be determined using conventional radiolig and receptor binding assays. The receptors can be heterologously expressed in cell lines and experiments conducted in membrane preparations from the cell lines using procedures outlined below. IC50 concentrations can be determined by nonlinear regression of concentration-dependent reduction in specific binding. The Cheng-Prussoff equation can be used to convert the IC50 to Ki concentrations.
Cell pastes of HEK-293 cells transfected with the human norepinephrine transporter were supplied by the Pfizer Ann Arbor Protein Expression and Production group. […] Aliquots of membranes (5 mg/ml protein) were stored in liquid nitrogen until used.
(§2) The reaction was incubated by gentle agitation for 90 min at room temperature and was terminated by filtration through Whatman GF/C filter plates using a Brandel 96-well plate harvester. […] Test compounds were run in duplicate, and specific binding was defined as the difference between binding in the presence and absence of 10 μM desipramine.
(§3) Excel and GraphPad Prism software were used for data calculation and analysis. IC50 values were converted to Ki values using the Cheng-Prusoff equation.

[2] = target: T2, human seritonin transporter (Homo sapiens, UniProt P31645); test: hSERT receptor binding ([125I]-RTI-55 radioligand binding); details: membranes of HEK-293 cells transfected with human seritonin transporter, IC50 converted to Ki by Cheng-Prusoff, read-out: SERT (Ki)
T2 construct: host or cells: HEK-293
T2 sequence (P31645 whole entry): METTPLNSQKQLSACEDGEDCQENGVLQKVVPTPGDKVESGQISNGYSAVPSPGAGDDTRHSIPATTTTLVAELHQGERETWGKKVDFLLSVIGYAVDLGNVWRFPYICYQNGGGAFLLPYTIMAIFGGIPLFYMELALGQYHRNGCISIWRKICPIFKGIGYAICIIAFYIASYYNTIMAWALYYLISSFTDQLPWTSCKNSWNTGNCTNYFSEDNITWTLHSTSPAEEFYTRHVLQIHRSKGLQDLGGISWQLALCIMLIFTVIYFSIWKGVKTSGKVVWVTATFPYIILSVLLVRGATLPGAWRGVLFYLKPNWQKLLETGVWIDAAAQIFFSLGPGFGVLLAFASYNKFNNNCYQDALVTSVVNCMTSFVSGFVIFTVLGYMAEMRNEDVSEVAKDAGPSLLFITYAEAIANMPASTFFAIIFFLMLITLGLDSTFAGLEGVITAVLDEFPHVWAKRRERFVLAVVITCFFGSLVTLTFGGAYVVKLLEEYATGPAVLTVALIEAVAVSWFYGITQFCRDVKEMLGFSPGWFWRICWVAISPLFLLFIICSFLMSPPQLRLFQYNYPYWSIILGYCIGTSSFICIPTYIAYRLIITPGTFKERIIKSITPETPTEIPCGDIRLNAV
Source text: as §1
Cell pastes of HEK-293 cells transfected with the human seritonin transporter were supplied by the Pfizer Ann Arbor Protein Expression and Production group. […] Aliquots of membranes (5 mg/ml protein) were stored in liquid nitrogen until used.
as §2, with “[…] citalopram.” for “μM desipramine.”
as §3

T1 sequence (P23975 whole entry): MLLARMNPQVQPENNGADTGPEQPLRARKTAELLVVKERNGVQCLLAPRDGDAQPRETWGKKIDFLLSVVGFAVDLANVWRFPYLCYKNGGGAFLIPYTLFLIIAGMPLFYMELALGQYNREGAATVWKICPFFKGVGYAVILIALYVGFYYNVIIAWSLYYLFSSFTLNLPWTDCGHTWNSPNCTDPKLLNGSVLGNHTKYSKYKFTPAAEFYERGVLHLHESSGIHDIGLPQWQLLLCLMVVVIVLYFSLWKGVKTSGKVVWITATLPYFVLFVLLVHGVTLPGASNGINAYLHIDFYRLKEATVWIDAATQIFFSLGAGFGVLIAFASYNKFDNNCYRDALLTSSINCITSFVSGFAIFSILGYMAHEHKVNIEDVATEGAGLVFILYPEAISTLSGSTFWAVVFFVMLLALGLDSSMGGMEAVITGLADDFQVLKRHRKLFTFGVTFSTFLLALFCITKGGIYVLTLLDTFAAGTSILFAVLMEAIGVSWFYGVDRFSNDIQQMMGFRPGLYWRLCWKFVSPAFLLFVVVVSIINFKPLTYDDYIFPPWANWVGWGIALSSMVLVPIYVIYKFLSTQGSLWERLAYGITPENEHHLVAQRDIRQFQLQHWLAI

Compound | Ki [1] [nM] | Ki [2] [nM]
FC(F)(F)Oc1ccccc1O[C@@H](c1ccccc1)[C@@H]1CNCCO1 [Example 1, (S)-2-[(S)-Phenyl-(2-trifluoromethoxy-phenoxy)-methyl]-morpholine] | 9.9 | 3940
CCOc1ccccc1O[C@H](c1cccnc1)[C@@H]1CNCCO1 (single isomer, unassigned) [Example 25] | 124 | ≥ 10000
Fc1ccc(Oc2ncccc2O[C@@H](c2ccccc2)[C@@H]2CNCCO2)cc1 [Example 116, (2S)-2-[(S)-{[2-(4-fluorophenoxy)pyridin-3-yl]oxy}(phenyl)methyl]morpholine] | 63 | 1330
[O-][n+]1ccccc1O[C@@H](c1ccccc1)[C@@H]1CNCCO1 [Example 29, (S)-2-[((S)-1-Oxy-pyridin-2-yloxy)-phenyl-methyl]-morpholine] | 154 | ≥ 10000
Clc1ccc(-c2ccccc2O[C@@H](c2ccccc2)[C@@H]2CNCCO2)cc1 [Example 16, (S)-2-[((S)-4′-Chloro-biphenyl-2-yloxy)-phenyl-methyl]-morpholine] | 99 | 4500
Fc1ccccc1OC(c1ccccn1)[C@@H]1CNCCO1 (single isomer, unassigned) [Example 120] | 10 | ≥ 10000
Fc1ccc([C@H](Oc2ccccc2Br)[C@H]2CNCCO2)cc1 [Example 47, (R)-2-[(S)-(2-Bromo-phenoxy)-(4-fluoro-phenyl)-methyl]-morpholine] | 8.4 | 52
Cc1coc(C(Oc2ccccc2C2CC2)[C@@H]2CNCCO2)n1 (stereo partly drawn) [Example 190, (2S)-2-[(2-cyclopropylphenoxy)(4-methyl-1,3-oxazol-2-yl)methyl]morpholine] | 6 | 4340
CCOc1ccccc1OC(c1ncco1)[C@@H]1CNCCO1 (mixture of isomers) [Example 195, (S)-2-[(2-ethoxyphenoxy)(1,3-oxazol-2-yl)methyl]morpholine] | 10 | 7060
CCOc1ncccc1O[C@@H](C)[C@@H]1CNCCO1 [Example 144, (2S)-2-{(1S)-1-[(2-ethoxypyridin-3-yl)oxy]ethyl}morpholine] | 304 | 7220
COc1ccc(F)cc1OC(c1ccccc1)[C@@H]1CNCCO1 (stereo partly drawn) [Example 167, (2S)-2-[(5-fluoro-2-methoxyphenoxy)(phenyl)methyl]morpholine] | 8 | 2550
Fc1ccc([C@H](Oc2ccccc2F)[C@H]2CNCCO2)cc1 [Example 34, (R)-2-[(S)-(2-Fluoro-phenoxy)-(4-fluoro-phenyl)-methyl]-morpholine] | 141 | 184
CCOc1ccccc1O[C@@H](c1cc(CC)ccn1)[C@@H]1CNCCO1 [Example 142, (2S)-2-[(S)-(2-ethoxyphenoxy)(4-ethylpyridin-2-yl)methyl]morpholine] | 49 | 4540
Fc1ccc(OC(c2cccnc2)C2CNCCO2)c(Cl)c1 (stereo in doubt) [Example 19, (S)-2-[(R)-(2-Chloro-4-fluoro-phenoxy)-pyridin-3-yl-methyl]-morpholine] | 1020 | 74
Fc1ccc(C(Oc2c(F)cccc2F)[C@H]2CNCCO2)cc1 (stereo partly drawn) [Example 111, (2R)-2-[(2,6-difluorophenoxy)(4-fluorophenyl)methyl]morpholine] | 105 | 237
CCOc1ncccc1O[C@@H](CC1CCCCC1)[C@@H]1CNCCO1 [Example 162, (2S)-2-{(1S)-2-cyclohexyl-1-[(2-ethoxypyridin-3-yl)oxy]ethyl}morpholine] | 5 | 263
Cc1coc(C(Oc2ccccc2Br)[C@@H]2CNCCO2)n1 (stereo partly drawn) [Example 177, (2S)-2-[(2-bromophenoxy)(4-methyl-1,3-oxazol-2-yl)methyl]morpholine] | 7 | 1960

Compound | Ki [1] [nM] | Ki [2] [nM]
N#Cc1ccccc1O[C@@H](c1ccccn1)[C@@H]1CNCCO1 (single isomer, unassigned) [Example 22 (2S, 3R)] | 4820 | 6670
CSc1ccccc1O[C@@H](c1ccccc1)[C@@H]1CNCCO1 [Example 53, (S)-2-[(S)-(2-Methylsulfanyl-phenoxy)-phenyl-methyl]-morpholine] | 5.9 | 259
CCOc1ccccc1OC(c1ccc(F)cc1)[C@H]1CNCCO1 (stereo partly drawn) [Example 35] | 11 | 605
c1ccc([C@H](Oc2ccccc2C2CC2)[C@@H]2CNCCO2)cc1 [Example 11, (S)-2-[(S)-(2-Cyclopropyl-phenoxy)-phenyl-methyl]-morpholine] | 1.8 | 452
Brc1ccccc1O[C@@H](c1ccccn1)[C@@H]1CNCCO1 [Example 155, (2S)-2-[(S)-(2-bromophenoxy)(pyridin-2-yl)methyl]morpholine] | 5 | 768
c1ccc([C@H](Oc2ccccc2C2CCCCC2)[C@@H]2CNCCO2)cc1 [Example 56, (S)-2-[(S)-(2-Cyclohexyl-phenoxy)-phenyl-methyl]-morpholine] | 41 | 2460
Fc1ccc(F)c(O[C@@H](c2ccccc2)[C@@H]2CNCCO2)c1 [Example 96, (2S)-2-[(S)-(2,5-difluorophenoxy)(phenyl)methyl]morpholine] | 12 | 4450
Clc1ccccc1-c1ccccc1OCC1CNCCO1 (stereo not drawn) [Example 73, 2-(2′-Chloro-biphenyl-2-yloxymethyl)-morpholine] | 595 | ≥ 10000
COc1cccc([C@H](Oc2ccccc2OC(C)C)[C@@H]2CNCCO2)n1 [Example 140, (2S)-2-[(S)-(2-isopropoxyphenoxy)(6-methoxypyridin-2-yl)methyl]morpholine] | 71 | 763
CC(C)Cc1ncccc1O[C@@H](c1ccccc1)[C@@H]1CNCCO1 [Example 182, (2S)-2-[(S)-[(2-isobutylpyridin-3-yl)oxy](phenyl)methyl]morpholine] | 31 | 7080
CS(=O)(=O)c1ccccc1O[C@@H](c1ccccc1)[C@@H]1CNCCO1 [Example 54, (S)-2-[(S)-(2-Methanesulfonyl-phenoxy)-phenyl-methyl]-morpholine] | 1310 | ≥ 10000
c1ccc([C@H](Oc2ccc3occc3c2)[C@@H]2CNCCO2)cc1 [Example 48, (S)-2-[(S)-(Benzofuran-5-yloxy)-phenyl-methyl]-morpholine] | 31 | 10
CCOc1ccc(F)cc1OC(c1ccccc1)[C@@H]1CNCCO1 (stereo partly drawn) [Example 169, (2S)-2-[(2-ethoxy-5-fluorophenoxy)(phenyl)methyl]morpholine] | 6 | 2980
Clc1cccc(Cl)c1O[C@@H](c1ccccc1)[C@@H]1CNCCO1 [Example 62, (S)-2-[(S)-(2,6-Dichloro-phenoxy)-phenyl-methyl]-morpholine] | 12 | 65
Fc1ccc(O[C@@H](c2ccccn2)[C@H]2CNCCO2)c(F)c1 [Example 28] | 8410 | 1410
CCOc1c(F)cccc1OC(c1ccccc1)[C@@H]1CNCCO1 (stereo partly drawn) [Example 170, (2S)-2-[(2-ethoxy-3-fluorophenoxy)(phenyl)methyl]morpholine] | 11 | 4930
